# From patent publication US8946203B2, “Benzodioxane inhibitors of leukotriene production” (Boehringer Ingelheim International GmbH, priority 2012, dated 2015)
# Tests used:
# human LTA4 hydrolase = molecular target: T1, human LTA4 hydrolase (Homo sapiens, UniProt P09960); assay: LTA4H Enzyme assay (cleavage of Arg-AMC, fluorescence); assay type: biochemical; settings: LTA4H Enzyme 1 nM, Arg-AMC substrate 50 μM, room temperature 1 h, fluorescence; read-out: IC50 values of LTA4H Enzyme assay
# T1 sequence (P09960 1-611): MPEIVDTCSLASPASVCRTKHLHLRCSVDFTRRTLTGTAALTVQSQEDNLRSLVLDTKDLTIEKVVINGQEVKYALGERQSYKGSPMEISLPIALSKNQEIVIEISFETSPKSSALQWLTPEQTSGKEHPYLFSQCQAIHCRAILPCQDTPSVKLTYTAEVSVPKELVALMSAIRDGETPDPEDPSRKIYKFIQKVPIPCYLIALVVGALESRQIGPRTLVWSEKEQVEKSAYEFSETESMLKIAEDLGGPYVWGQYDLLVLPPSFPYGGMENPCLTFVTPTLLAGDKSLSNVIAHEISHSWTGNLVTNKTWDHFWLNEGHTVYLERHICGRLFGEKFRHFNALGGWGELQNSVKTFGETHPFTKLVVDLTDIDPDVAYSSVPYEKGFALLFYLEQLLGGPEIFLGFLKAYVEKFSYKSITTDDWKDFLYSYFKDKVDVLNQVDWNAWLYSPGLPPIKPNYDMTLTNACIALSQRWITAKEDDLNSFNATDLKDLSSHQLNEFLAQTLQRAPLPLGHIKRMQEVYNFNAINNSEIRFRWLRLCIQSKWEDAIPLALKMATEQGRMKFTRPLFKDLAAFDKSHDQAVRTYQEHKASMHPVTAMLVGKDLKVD
# Method in brief: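 Peptidase activity of human LTA4H (1 nM final) on Arg-AMC (50 μM final), with compound, 1 h at room temperature. Buffer: 50 mM Tris-HCl pH 7.5, 100 mM KCl, 0.5% BSA.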
# [1] = system: synthesis of LTB4 in human whole blood; assay: human whole blood (HWB) assay, LTB4 production inhibition after calcimycin stimulation; assay type: cell-based; settings: heparinized human whole blood, calcimycin 20 μM, plasma LTB4 by HTRF
# Procedure: The compounds of the invention are additionally tested in a human whole blood (HWB) assay to determine their ability to inhibit the synthesis of LTB4 in a cellular system. Compounds are combined with heparinized human whole blood and incubated for 15 minutes at 37° C. Calcimycin (20 μM final, prepared in phosphate-buffered saline, pH 7.4) is then added and the mixture is incubated for another 30 minutes at 37° C. The samples are centrifuged for 5 min at low speed (1500×g) and the plasma layer is removed. Plasma LTB4 concentrations are then measured using an antibody-based homogenous time-resolved fluorescence method (CisBio, Bedford, Mass.). In general, the preferred potency range (IC50) of compounds in the HWB assay is between 10 nM to 10 μM, the more preferred potency range is 10 nM to 1 μM, and the most preferred potency range is 10 nM to 100 nM.
smiles,measurement,setting,value
"CN(Cc1ccc([C@H]2COc3cccnc3O2)cc1)C1CCCC1 [Example 142, N-{4-[(3S)-2,3-dihydro[1,4]dioxino[2,3-b]pyridin-3-yl]benzyl}-N-methylcyclopentanamine]",IC50,human LTA4 hydrolase,0.17 nM
same,IC50,[1],24 nM
"OCC1CCCN(Cc2ccc([C@H]3COc4ccccc4O3)cc2)C1 (stereo partly drawn) [Example 69, (1-{4-[(2S)-2,3-dihydro-1,4-benzodioxin-2-yl]benzyl}piperidin-3-yl)methanol]",IC50,human LTA4 hydrolase,0.6 nM
same,IC50,[1],165 nM
"CS(=O)(=O)CC(=O)N1C[C@@H]2C[C@H]1CN2Cc1ccc([C@H]2COc3cccnc3O2)cc1 [Example 256, 1-{(1S,4S)-5-[(S)-4-(2,3-Dihydro-[1,4]dioxino[2,3-b]pyridin-3-yl)-benzyl]-2,5-diaza-bicyclo[2.2.1]hept-2-yl}-2-methanesulfonyl-ethanone]",IC50,human LTA4 hydrolase,0.49 nM
same,IC50,[1],110 nM
"CS(=O)(=O)NC[C@@H]1[C@H]2CN(Cc3ccc([C@H]4COc5cccnc5O4)cc3)C[C@@H]12 [Example 263, N-{(1α,5α,6α)-3-[(S)-4-(2,3-Dihydro-[1,4]dioxino[2,3-b]pyridin-3-yl)-benzyl]-3-aza-bicyclo[3.1.0]hex-6-ylmethyl}-methanesulfonamide]",IC50,human LTA4 hydrolase,0.49 nM
same,IC50,[1],130 nM
"O=C(O)c1ccc(C2CN(Cc3ccc([C@H]4COc5ccccc5O4)cc3)C2)cc1 [Example 254, 4-{1-[(S)-4-(2,3-Dihydro-benzo[1,4]dioxin-2-yl)-benzyl]-azetidin-3-yl}-benzoic acid]",IC50,human LTA4 hydrolase,0.24 nM
same,IC50,[1],84 nM
"O=C(O)CCC1CCN(Cc2ccc([C@H]3COc4ccccc4O3)cc2)CC1 [Example 134, 3-(1-{4-[(2S)-2,3-dihydro-1,4-benzodioxin-2-yl]benzyl}piperidin-4-yl)propionic acid]",IC50,human LTA4 hydrolase,0.47 nM
same,IC50,[1],95 nM
"NC(=O)CN1CCCC12CCN(Cc1ccc([C@H]3COc4ccccc4O3)cc1)C2 (stereo partly drawn) [Example 123, 2-(7-{4-[(2S)-2,3-dihydro-1,4-benzodioxin-2-yl]benzyl}-1,7-diazaspiro[4.4]non-1-yl)acetamide]",IC50,human LTA4 hydrolase,0.73 nM
same,IC50,[1],312 nM
"NC(=O)N1CCN(Cc2ccc([C@H]3COc4cccnc4O3)cc2)CC1 [Example 164, 4-{4-[(3S)-2,3-dihydro[1,4]dioxino[2,3-b]pyridin-3-yl]benzyl}piperazine-1-carboxamide]",IC50,human LTA4 hydrolase,0.84 nM
same,IC50,[1],100 nM
"O=C(CO)N1C[C@@H]2CC[C@H]1CN2Cc1ccc([C@H]2COc3cccnc3O2)cc1 [Example 281, 1-{(1S,4S)-5-[(S)-4-(2,3-Dihydro-[1,4]dioxino[2,3-b]pyridin-3-yl)-benzyl]-2,5-diaza-bicyclo[2.2.2]oct-2-yl}-2-hydroxy-ethanone]",IC50,human LTA4 hydrolase,0.17 nM
same,IC50,[1],37 nM
"CC(c1ccc([C@H]2COc3ccccc3O2)cc1)N1CCC(C(=O)O)CC1 (stereo partly drawn) [Example 227, 1-{1-[(S)-4-(2,3-dihydro-benzo[1,4]dioxin-2-yl)-phenyl]-ethyl}-piperidine-4-carboxylic acid]",IC50,human LTA4 hydrolase,1.4 nM
same,IC50,[1],307 nM
"O=C(O)c1ccc(CC2CCN(Cc3ccc([C@H]4COc5cccnc5O4)cc3)CC2)cc1 [Example 234, 4-[(1-{4-[(3S)-2,3-dihydro[1,4]dioxino[2,3-b]pyridin-3-yl]benzyl}piperidin-4-yl)methyl]benzoic acid]",IC50,human LTA4 hydrolase,0.14 nM
same,IC50,[1],95 nM
"O=S1(=O)CCCN(Cc2ccc([C@H]3COc4cccnc4O3)cc2)CC1 [Example 275, (S)-3-[4-(1,1-Dioxo-1lambda6-[1,4]thiazepan-4-ylmethyl)-phenyl]-2,3-dihydro-[1,4]dioxino[2,3-b]pyridine]",IC50,human LTA4 hydrolase,0.7 nM
same,IC50,[1],170 nM
"CC1(O)CCN(Cc2ccc([C@H]3COc4cccnc4O3)cc2)CC1 [Example 276, 1-[(S)-4-(2,3-Dihydro-[1,4]dioxino[2,3-b]pyridin-3-yl)-benzyl]-4-methyl-piperidin-4-ol]",IC50,human LTA4 hydrolase,1.2 nM
same,IC50,[1],240 nM
"NC(=O)COC1CCN(Cc2ccc([C@H]3COc4cccnc4O3)cc2)CC1 [Example 274, 2-{1-[(S)-4-(2,3-Dihydro-[1,4]dioxino[2,3-b]pyridin-3-yl)-benzyl]-piperidin-4-yloxy}-acetamide]",IC50,human LTA4 hydrolase,0.15 nM
same,IC50,[1],100 nM
"O=C1NCCCC12CCN(Cc1ccc([C@H]3COc4ccccc4O3)cc1)CC2 [Example 116, 9-{4-[(2S)-2,3-dihydro-1,4-benzodioxin-2-yl]benzyl}-2,9-diazaspiro[5.5]undecan-1-one]",IC50,human LTA4 hydrolase,0.82 nM
same,IC50,[1],310 nM
"c1cnc2c(c1)OC[C@H](c1ccc(CN3CCn4cnnc4C3)cc1)O2 [Example 156, (3S)-3-[4-(5,6-dihydro[1,2,4]triazolo[4,3-a]pyrazin-7(8H)-ylmethyl)phenyl]-2,3-dihydro[1,4]dioxino[2,3-b]pyridine]",IC50,human LTA4 hydrolase,0.91 nM
same,IC50,[1],159 nM
"c1cnc2c(c1)OC[C@H](c1ccc(CN3CCCCCC3)cc1)O2 [Example 139, (3S)-3-[4-(azepan-1-ylmethyl)phenyl]-2,3-dihydro[1,4]dioxino[2,3-b]pyridine]",IC50,human LTA4 hydrolase,0.1 nM
same,IC50,[1],13 nM
"CNC(=O)c1nnc2n1CCN(Cc1ccc([C@H]3COc4cccnc4O3)cc1)CC2 [Example 246, 6-[(S)-4-(2,3-Dihydro-[1,4]dioxino[2,3-b]pyridin-3-yl)-benzyl]-5,6,7,8-tetrahydro-4H-1,2,3a,6-tetraaza-azulene-3-carboxylic acid methylamide]",IC50,human LTA4 hydrolase,0.29 nM
same,IC50,[1],91 nM
"O=C(O)C1CCCN(Cc2ccc([C@H]3COc4ccccc4O3)cc2)CC1 (stereo partly drawn) [Example 266, 1-[(S)-4-(2,3-Dihydro-benzo[1,4]dioxin-2-yl)-benzyl]-azepane-4-carboxylic acid]",IC50,human LTA4 hydrolase,0.22 nM
same,IC50,[1],98 nM
"O=C(C1CCN(Cc2ccc(C3COc4ccccc4O3)cc2)CC1)N1CCOCC1 (racemic) [Example 37, {1-[4-(2,3-dihydro-1,4-benzodioxin-2-yl)benzyl]piperidin-4-yl}(morpholin-4-yl)methanone]",IC50,human LTA4 hydrolase,1.05 nM
same,IC50,[1],324 nM
"O=C(CN1CCCC1=O)NC1CCN(Cc2ccc([C@H]3COc4cccnc4O3)cc2)CC1 [Example 289, N-[1-[[4-[(3S)-2,3-dihydro-[1,4]dioxino[2,3-b]pyridin-3-yl]phenyl]methyl]-4-piperidyl]-2-(2-oxopyrrolidin-1-yl)acetamide]",IC50,human LTA4 hydrolase,0.4 nM
same,IC50,[1],170 nM
"CC(=O)NC1CCN(Cc2ccc([C@H]3COc4ccccc4O3)cc2)CC1 [Example 178, N-(1-{4-[(2S)-2,3-dihydro-1,4-benzodioxin-2-yl]benzyl}piperidin-4-yl)acetamide]",IC50,human LTA4 hydrolase,0.35 nM
same,IC50,[1],160 nM
"O=C(O)[C@@H]1CCN(Cc2ccc([C@H]3COc4ccccc4O3)cc2)C1 [Example 214, (3R)-1-{4-[(2S)-2,3-dihydro-1,4-benzodioxin-2-yl]benzyl}pyrrolidine-3-carboxylic acid]",IC50,human LTA4 hydrolase,0.47 nM
same,IC50,[1],169 nM
"O=C1OC[C@@H]2CN(Cc3ccc([C@H]4COc5cccnc5O4)cc3)CCN12 [Example 296, (S)-7-[(S)-4-(2,3-Dihydro-[1,4]dioxino[2,3-b]pyridin-3-yl)-benzyl]-hexahydro-oxazolo[3,4-a]pyrazin-3-one]",IC50,human LTA4 hydrolase,0.32 nM
same,IC50,[1],90 nM
"O=C1OC[C@H]2CN(Cc3ccc([C@H]4COc5cccnc5O4)cc3)CCN12 [Example 285, (R)-7-[(S)-4-(2,3-Dihydro-[1,4]dioxino[2,3-b]pyridin-3-yl)-benzyl]-hexahydro-oxazolo[3,4-a]pyrazin-3-one]",IC50,human LTA4 hydrolase,1 nM
same,IC50,[1],200 nM
"CN(Cc1ccc([C@H]2COc3cccnc3O2)cc1)C1CCS(=O)(=O)C1 (stereo partly drawn) [Example 280, [(S)-4-(2,3-Dihydro-[1,4]dioxino[2,3-b]pyridin-3-yl)-benzyl]-(1,1-dioxo-tetrahydro-1lambda-6-thiophen-3-yl)-methyl-amine]",IC50,human LTA4 hydrolase,2.4 nM
same,IC50,[1],230 nM
"CN(Cc1ccc([C@H]2COc3ccccc3O2)cc1)C(C)(C)C [Example 81, N-{4-[(2S)-2,3-dihydro-1,4-benzodioxin-2-yl]benzyl}-N,2-dimethylpropan-2-amine]",IC50,human LTA4 hydrolase,0.31 nM
same,IC50,[1],81 nM
"CC(=O)N1C[C@@H]2C[C@H]1CN2Cc1ccc([C@H]2COc3cccnc3O2)cc1 [Example 292, 1-{(1S,4S)-5-[(S)-4-(2,3-Dihydro-[1,4]dioxino[2,3-b]pyridin-3-yl)-benzyl]-2,5-diaza-bicyclo[2.2.1]hept-2-yl}-ethanone]",IC50,human LTA4 hydrolase,0.16 nM
same,IC50,[1],24 nM
